Like-named read-outs stand apart in the source and are kept apart here.
Legend:
[1] = tested on: KYSE70 cells; assay: MTT assay for cell proliferation and cytotoxicity; type: cell-based; conditions: Homo sapiens, read-out: IC50 KYSE70
Procedure: (§2) The compounds were dissolved in DMSO to make a 50 mM stock solution and were diluted to the concentration of working solutions with the complete growth medium before administration.
(§3) Cells were seeded in 96-well plates with densities of 2,200–2,500 cells/well in 100 μL. One day after seeding, the concentration of the test compounds between 0 and 50 μM, 0.1% DMSO was added to cells as control. […] After 48 h, MTT was added and incubated in the plate for 1–4 h in the incubator.

[2] = tested on: HCC827GR cells; assay: MTT assay, drug-resistant cell line; type: cell-based, human
Procedure: as §2, §3

[3] = tested on: KYSE450TR cells; assay: MTT assay, drug-resistant cell line; type: cell-based, human
Procedure: as §2, §3

[4] = tested on: KYSE70TR cells; assay: MTT assay, drug-resistant cell line; type: cell-based, human
Procedure: as §2, §3

[5] = tested on: KYSE410TR cells; assay: MTT assay, drug-resistant cell line; type: cell-based, human
Procedure: as §2, §3

[6] = tested on: human esophageal epithelial cell SHEE; assay: MTT assay, toxicity against normal cells; type: cell-based; conditions: read-out: IC50 SHEE
Procedure: Cells were seeded in 96-well plates with densities of 2,200–2,500 cells/well in 100 μL. One day after seeding, the concentration of the test compounds between 0 and 50 μM, 0.1% DMSO was added to cells as control. Approximately 2200-2500 transfected cells in 100 μL were incubated in quintuplicate in 96-well plates. After 48 h, MTT was added and incubated in the plate for 1–4 h in the incubator.

[7] = tested on: KYSE450TR cells; assay: Flow cytometry detection for cell apoptosis (Annexin V/PI); type: cell-based, human; conditions: 48 h
Procedure: (§1) Cell apoptosis analysis was carried out by flow cytometry using the Annexin V/PI apoptosis methods. […] The cells were harvested and incubated with 250 μL of 1 × Annexin V binding buffer containing 5 μL of PI and 5 μL of FITC Annexin V (final concentration 1.8 μg/ml, Biolegend cat: 640945) for 15 min at room temperature in the dark. Then 200 µL of 1 × binding buffer was added for flow cytometry analysis (BD FACSCalibur™ Flow Cytometer).

[8] = tested on: KYSE450 cells; assay: as above; type: cell-based, human; conditions: 48 h
Procedure: as §1

[9] = tested on: H1650 cells; assay: MTT assay for cell proliferation and cytotoxicity; type: cell-based; conditions: Homo sapiens, read-out: IC50 H1650
Procedure: as §2, §3

[10] = tested on: KYSE450 cells; assay: MTT assay for cell proliferation and cytotoxicity; type: cell-based; conditions: Homo sapiens, read-out: IC50 KYSE450
Procedure: as §2, §3

[11] = tested on: H1650TR cells; assay: MTT assay, drug-resistant cell line; type: cell-based, human
Procedure: as §2, §3

[12] = tested on: KYSE410 cells; assay: MTT assay for cell proliferation and cytotoxicity; type: cell-based; conditions: Homo sapiens, read-out: IC50 KYSE410
Procedure: as §2, §3

[13] = tested on: HCC827 cells; assay: MTT assay for cell proliferation and cytotoxicity; type: cell-based; conditions: Homo sapiens, 48 h, mean ± SD
Procedure: as §2, §3

[14] = MTT, normal human esophageal epithelial cells, mean ± SD
[15] = NCI-H1650, MTT, 48 h, mean ± SD

C#Cc1cccc(Nc2ncnc3cc(OCCOC)c(OCCOC)cc23)c1 [Erlotinib]
IC50 ([1]; KYSE-70, 48 h): > 50 µM | IC50 ([2]; Homo sapiens, read-out: IC50 HCC827GR, MTT, gefitinib-resistant lung cancer cell line): > 10 µM | IC50 ([2]; read-out: IC50 HCC827GR, MTT, gefitinib-resistant lung cancer cell line): > 20 µM | IC50 ([3]; Homo sapiens, read-out: IC50 KYSE450TR, MTT, paclitaxel-resistant esophageal cancer cell line): > 10 µM | IC50 ([3]; read-out: IC50 KYSE450TR, MTT, paclitaxel-resistant esophageal cancer cell line): > 20 µM | IC50 ([4]; Homo sapiens, read-out: IC50 KYSE70TR, MTT, paclitaxel-resistant esophageal cancer cell line): > 10 µM | IC50 ([4]; read-out: IC50 KYSE70TR, MTT, paclitaxel-resistant esophageal cancer cell line): > 20 µM | IC50 ([5]; Homo sapiens, read-out: IC50 KYSE410TR, MTT, paclitaxel-resistant esophageal cancer cell line): > 10 µM | IC50 ([5]; read-out: IC50 KYSE410TR, MTT, paclitaxel-resistant esophageal cancer cell line): > 20 µM | IC50 ([6]; Homo sapiens): 21 ± 2.11 µM | proportion of apoptotic cells ([7]; 5 μM): 10.16% | proportion of apoptotic cells ([7]; 10 μM): 16.68% | proportion of apoptotic cells ([8]; KYSE450, 5 μM): 7.04% | proportion of apoptotic cells ([8]; KYSE450, 10 μM): 8.94% | IC50 ([9]; NCI-H1650, 48 h): 14 ± 1.19 µM | IC50 ([10]; KYSE-450, 48 h): 7.6 ± 0.51 µM | IC50 ([11]; Homo sapiens, read-out: IC50 H1650TR, MTT, paclitaxel-resistant lung cancer cell line): > 10 µM | IC50 ([11]; read-out: IC50 H1650TR, MTT, paclitaxel-resistant lung cancer cell line): > 20 µM | IC50 ([12]; KYSE-410, 48 h): 5 ± 0.46 µM

COCCOc1cc2ncnc(Nc3cccc(-c4cn(-c5ccccc5C(F)(F)F)nn4)c3)c2cc1OCCOC [Compound 3p, [6,7-Bis-(2-Methoxy-Ethoxy)-Quinazolin-4-yl]-{3-[1-(2-Trifluoromethyl-Phenyl)-1H-(1,2,3)Triazol-4-yl]-Phenyl}-Amine]
IC50 ([1]; KYSE-70, MTT, 48 h, mean ± SD): > 50 µM | IC50 [13]: 34.7 µM | melting point: 113 to 116 °C | IC50 [6, 14]: > 50 µM | IC50 [9, 15]: > 50 µM | IC50 ([10]; KYSE-450, MTT, 48 h, mean ± SD): 24.9 ± 2.16 µM | IC50 ([12]; KYSE-410, MTT, 48 h, mean ± SD): > 50 µM

COCCOc1cc2ncnc(Nc3cccc(-c4cn(-c5cccc([N+](=O)[O-])c5)nn4)c3)c2cc1OCCOC [Compound 3m, [6,7-Bis-(2-Methoxy-Ethoxy)-Quinazolin-4-yl]-{3-[1-(3-Nitro-Phenyl)-1H-(1,2,3)Triazol-4-yl]-Phenyl}-Amine]
IC50 ([1]; KYSE-70, MTT, 48 h, mean ± SD): 3.92 ± 0.15 µM | IC50 [13]: 8.44 ± 0.37 µM | melting point: 98 to 101 °C | IC50 [6, 14]: > 50 µM | IC50 [9, 15]: 4.27 ± 0.19 µM | IC50 ([10]; KYSE-450, MTT, 48 h, mean ± SD): 4.05 ± 0.21 µM | IC50 ([12]; KYSE-410, MTT, 48 h, mean ± SD): 5.85 ± 0.2 µM
